This note sets out measurements from ChEMBL document CHEMBL1135198, “Structure-activity relationships of non-imidazole H(3) receptor ligands. Part 1” (Bioorg Med Chem Lett, 2002).

Structures are written as SMILES.

A word on the Ki: it is a measure of affinity in units of concentration, obtained from inhibition or displacement. Higher therefore signals a looser hold on the target.

For one test, the target named is Histamine H1 receptor (Homo sapiens, UniProt P35367). Kind of test: Binding affinity for the human Histamine H1 Receptor.
Histamine H1 receptor, sequence (P35367 whole entry): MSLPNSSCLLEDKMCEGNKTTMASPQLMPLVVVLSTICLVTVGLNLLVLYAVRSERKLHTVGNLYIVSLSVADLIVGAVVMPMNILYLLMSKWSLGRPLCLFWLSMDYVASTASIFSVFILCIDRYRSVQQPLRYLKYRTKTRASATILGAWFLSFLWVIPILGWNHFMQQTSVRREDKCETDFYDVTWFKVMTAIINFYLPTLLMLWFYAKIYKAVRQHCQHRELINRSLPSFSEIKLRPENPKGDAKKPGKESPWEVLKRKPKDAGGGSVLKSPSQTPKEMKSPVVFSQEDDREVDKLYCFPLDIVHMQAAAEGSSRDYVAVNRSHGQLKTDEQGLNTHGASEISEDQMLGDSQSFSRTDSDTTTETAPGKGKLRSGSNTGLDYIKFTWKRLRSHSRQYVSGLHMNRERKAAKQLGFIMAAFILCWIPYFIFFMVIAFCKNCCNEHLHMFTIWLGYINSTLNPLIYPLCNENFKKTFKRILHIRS
The next test addresses Histamine H3 receptor (Rattus norvegicus, UniProt Q9QYN8). Kind of test: Binding affinity for the rat cortical Histamine H3 receptor.
In a further test the target is Histamine H2 receptor (Homo sapiens, UniProt P25021). The experiment in a line: Binding affinity for the human Histamine H2 receptor.
Histamine H2 receptor, sequence (P25021 whole entry): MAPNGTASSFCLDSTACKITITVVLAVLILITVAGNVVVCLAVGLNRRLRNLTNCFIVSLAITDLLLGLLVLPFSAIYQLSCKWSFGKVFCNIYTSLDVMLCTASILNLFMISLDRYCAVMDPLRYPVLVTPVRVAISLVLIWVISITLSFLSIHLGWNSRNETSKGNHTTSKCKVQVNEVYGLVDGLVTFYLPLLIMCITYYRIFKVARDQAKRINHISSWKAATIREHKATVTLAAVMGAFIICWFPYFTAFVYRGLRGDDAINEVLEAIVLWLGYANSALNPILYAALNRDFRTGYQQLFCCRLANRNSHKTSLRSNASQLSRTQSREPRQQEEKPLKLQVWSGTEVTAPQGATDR

Histamine H3 receptor, sequence (Q9QYN8 whole entry): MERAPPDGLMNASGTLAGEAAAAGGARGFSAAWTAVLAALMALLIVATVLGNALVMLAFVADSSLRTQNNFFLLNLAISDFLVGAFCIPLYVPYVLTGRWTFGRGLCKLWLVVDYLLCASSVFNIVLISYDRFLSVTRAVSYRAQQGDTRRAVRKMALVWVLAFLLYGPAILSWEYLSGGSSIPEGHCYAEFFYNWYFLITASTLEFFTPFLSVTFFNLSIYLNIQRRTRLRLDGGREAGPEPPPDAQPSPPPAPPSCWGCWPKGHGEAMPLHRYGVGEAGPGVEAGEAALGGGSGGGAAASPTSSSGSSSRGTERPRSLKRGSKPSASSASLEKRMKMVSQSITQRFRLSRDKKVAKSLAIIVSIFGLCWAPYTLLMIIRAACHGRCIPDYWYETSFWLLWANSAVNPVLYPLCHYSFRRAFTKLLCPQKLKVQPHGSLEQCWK

Regarding `CCCCCC(=O)c1ccc(OCCCN2CCN(C(=O)c3sccc3Cl)CC2)cc1`, the Ki at Histamine H1 receptor is 79.4 nM; at Histamine H3 receptor, 29.5 nM; at Histamine H2 receptor, 19500 nM.

Take `CCCCCC(=O)c1ccc(OCCCN2CCN(C(=O)CC)CC2)cc1`: the Ki at Histamine H1 receptor was 1910 nM; at Histamine H3 receptor, 3.16 nM; on Histamine H2 receptor, 31600 nM.

On to `CCCCCC(=O)c1ccc(OCCCN2CCN(C(=O)c3ccccc3)CC2)cc1`, for which the results for the inhibition constant (Ki) on Histamine H1 receptor, on Histamine H3 receptor and at Histamine H2 receptor were 288 nM, 36.3 nM and 12300 nM, respectively.

As to `CCCC(=O)c1ccc(OCCCN2CCN(C(=O)OCC)CC2)cc1`, the results for the Ki at Histamine H1 receptor, at Histamine H3 receptor and on Histamine H2 receptor were 741 nM, 3.63 nM and 22400 nM, respectively.

Turning to `CCCCCC(=O)c1ccc(OCCCN2CCN(S(C)(=O)=O)CC2)cc1`, the Ki on Histamine H1 receptor was 26300 nM; on Histamine H3 receptor, 21.4 nM; on Histamine H2 receptor it was 83200 nM.

`CCOC(=O)N1CCN(CCCOc2ccc(C(=O)c3ccc(F)cc3)cc2)CC1`: the Ki at Histamine H1 receptor is 209 nM; on Histamine H3 receptor, 67.6 nM; at Histamine H2 receptor it was 42700 nM.

Take `CCCCCC(=O)c1ccc(OCCCN2CCN(Cc3nccs3)CC2)cc1`: the Ki is 60.3 nM at Histamine H1 receptor, 16.6 nM at Histamine H3 receptor and 7080 nM on Histamine H2 receptor.

`CCOC(=O)N1CCN(CCCOc2ccc(C(=O)C3CCCCC3)cc2)CC1`: the Ki at Histamine H1 receptor is 603 nM; on Histamine H3 receptor it was 25.1 nM; at Histamine H2 receptor it was 7940 nM.

For `CCOC(=O)N1CCN(CCCOc2ccc(C(=O)CC(C)C)cc2)CC1`, the results for the Ki on Histamine H1 receptor, at Histamine H3 receptor and on Histamine H2 receptor were 933 nM, 7.24 nM and 69200 nM, respectively.

For the compound `CCOC(=O)N1CCN(CCCOc2ccc(C(=O)CC)cc2)CC1`, the Ki at Histamine H1 receptor was 1660 nM; at Histamine H3 receptor, 5.37 nM; at Histamine H2 receptor, 56200 nM.

For the compound `CCCCCC(=O)c1ccc(OCCCN2CCN(C(=O)C(C)C)CC2)cc1`, the Ki at Histamine H1 receptor was 3980 nM; on Histamine H2 receptor it was 29500 nM.

For `CCCCCC(=O)c1ccc(OCCCN2CCN(C(=O)OCC)CC2)cc1`, the Ki on Histamine H1 receptor was 275 nM; on Histamine H3 receptor it was 1.38 nM; at Histamine H2 receptor, 12600 nM.

For the compound `CCCCCC(=O)c1ccc(OCCCN2CCN(S(=O)(=O)C(C)C)CC2)cc1`, the Ki at Histamine H1 receptor is 11200 nM; at Histamine H3 receptor, 12.6 nM; at Histamine H2 receptor, 20900 nM.

Turning to `CCCCCC(=O)c1ccc(OCCCN2CCN(S(=O)(=O)c3ccc(C#N)cc3)CC2)cc1`, the Ki is 13500 nM on Histamine H1 receptor, 37.2 nM on Histamine H3 receptor and 12300 nM on Histamine H2 receptor.

With `CCOC(=O)N1CCN(CCCOc2ccc(C(=O)c3cccc(C)c3)cc2)CC1`, the Ki at Histamine H1 receptor was 380 nM; on Histamine H3 receptor, 288 nM; on Histamine H2 receptor, 3720 nM.

`CCCCCC(=O)c1ccc(OCCCN2CCN(C(=O)C3CCC3)CC2)cc1`: the Ki at Histamine H1 receptor is 355 nM; at Histamine H3 receptor it was 3.16 nM; on Histamine H2 receptor, 10200 nM.

Take `CCOC(=O)N1CCN(CCCOc2ccc(C(=O)c3ccc(C(C)(C)C)cc3)cc2)CC1`: the Ki at Histamine H1 receptor is 562 nM; at Histamine H3 receptor, 13.2 nM; at Histamine H2 receptor, 1550 nM.

Consider `CCCCCC(=O)c1ccc(OCCCN2CCN(CC3CC3)CC2)cc1`, for which the Ki at Histamine H1 receptor was 2240 nM; on Histamine H3 receptor, 15.8 nM; on Histamine H2 receptor it was 18600 nM.

Take `CCCCCC(=O)c1ccc(OCCCN2CCN(CCCC)CC2)cc1`: the Ki on Histamine H1 receptor is 661 nM; on Histamine H3 receptor it was 13.5 nM; on Histamine H2 receptor, 7590 nM.

In the case of `CCCCCC(=O)c1ccc(OCCCN2CCN(C(=O)CCC)CC2)cc1`, the Ki on Histamine H1 receptor is 871 nM; on Histamine H3 receptor, 6.46 nM; on Histamine H2 receptor it was 22900 nM.

At Histamine H3 receptor, `CCCCCC(=O)c1ccc(OCCCC2CCNCC2)cc1` had a Ki of 58900 nM.

In turn, `CCCCCC(=O)c1ccc(OCCCN2CCCCC2)cc1` had a Ki on Histamine H3 receptor of 63.1 nM.

As for `CCOC(=O)N1CCN(CCCOc2ccc(C(=O)Cc3ccccc3)cc2)CC1`, the Ki on Histamine H1 receptor is 933 nM; at Histamine H3 receptor it was 69.2 nM; at Histamine H2 receptor, 12600 nM.

In the case of `CCCCCC(=O)c1ccc(OCCCN2CCN(C(=O)N3CCOCC3)CC2)cc1`, the Ki on Histamine H1 receptor was 4170 nM; on Histamine H3 receptor it was 5.89 nM; on Histamine H2 receptor, 17800 nM.
